Laboratory results from PubChem BioAssay (NCI).
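Following 48 hours of exposure in 96-well plates, responses at five concentrations were used to interpolate endpoints linearly. GI50: concentration for 50% inhibition of growth. The concentration for full growth arrest is given as TGI.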

What was measured:
Assay in all cases: growth of human tumour cells (NCI), 48 h
[1] = system: RPMI-8226 leukemia
[2] = system: NCI-H23 lung
[3] = system: SF-295 CNS
[4] = system: HT29 colon
[5] = system: M14 melanoma
[6] = system: BT-549 breast
[7] = system: PC-3 prostate
[8] = system: MDA-MB-435
[9] = system: LOX IMVI melanoma
[10] = system: HCC-2998 colon
[11] = system: HL-60(TB) leukemia
[12] = system: TK-10 renal
[13] = system: OVCAR-8 ovarian
[14] = system: RXF 393 renal
[15] = system: A549 NSCLC
[16] = system: SK-MEL-28 melanoma
[17] = system: IGROV1 ovarian
[18] = system: UO-31 renal
[19] = system: UACC-62 melanoma
[20] = system: CAKI-1 renal
[21] = system: UACC-257 melanoma
[22] = system: NCI-H226 lung
[23] = system: SF-268 CNS
[24] = system: OVCAR-5 ovarian
[25] = system: MOLT-4 leukemia
[26] = system: OVCAR-4 ovarian
[27] = system: MCF7 breast
[28] = system: 786-0 renal
[29] = system: HCT-15 colon
[30] = system: SF-539 CNS
[31] = system: NCI-H522 lung
[32] = system: NCI-H460 lung
[33] = system: KM12 colon
[34] = system: HS 578T breast
[35] = system: SK-MEL-2 melanoma
[36] = system: A498 renal
[37] = system: OVCAR-3 ovarian
[38] = system: SN12C renal
[39] = system: MALME-3M melanoma
[40] = system: U251 CNS
[41] = system: MDA-MB-468 breast
[42] = system: SNB-19 CNS
[43] = system: HOP-92 NSCLC
[44] = system: DU-145 prostate
[45] = system: ACHN renal
[46] = system: HOP-62 NSCLC
[47] = system: SR leukemia
[48] = system: SW-620 colon
[49] = system: SNB-75 CNS
[50] = system: HCT-116 colon
[51] = system: K-562 leukemia
[52] = system: NCI/ADR-RES ovarian
[53] = system: EKVX NSCLC
[54] = system: SK-MEL-5 melanoma
[55] = system: T-47D breast
[56] = system: MDA-MB-231 breast
[57] = system: SK-OV-3 ovarian
[58] = system: CCRF-CEM leukemia
[59] = system: COLO 205 colon

Question: With `CC12CCC3(CCC(=O)NCCCNc4ccnc5cc(Cl)ccc45)[C@@](C)(OO[C@]3(C)O1)O2` as the molecule, how does the GI50 [1] read?
Answer: The GI50 was 5.86 µM.

Question: What about the TGI [1] of the same molecule?
Answer: Its TGI is over 25.5 µM.

Question: And the GI50 [2]?
Answer: Its GI50 is 3.77 µM.

Question: What about the TGI [2] of the same molecule?
Answer: The TGI was 11.8 µM.

Question: And the GI50 [3]?
Answer: Its GI50 is 4.5 µM.

Question: What about the TGI [3] of the same molecule?
Answer: Its TGI is 15 µM.

Question: And the GI50 [4]?
Answer: The GI50 was 6.19 µM.

Question: And the TGI [4]?
Answer: Its TGI is 23.3 µM.

Question: And the GI50 [5]?
Answer: Its GI50 is 4.36 µM.

Question: What about the TGI [5] of the same molecule?
Answer: The TGI was 17.4 µM.

Question: What about the GI50 [6] of the same molecule?
Answer: The GI50 was 5.28 µM.

Question: And the TGI [6]?
Answer: The TGI was 15.5 µM.

Question: And the GI50 [7]?
Answer: Its GI50 is 6.72 µM.

Question: What about the TGI [7] of the same molecule?
Answer: The TGI was over 25.5 µM.

Question: What about the GI50 [8] of the same molecule?
Answer: The GI50 was 4.89 µM.

Question: And the TGI [8]?
Answer: Its TGI is over 25.5 µM.

Question: And the GI50 [9]?
Answer: Its GI50 is 1.34 µM.

Question: And the TGI [9]?
Answer: The TGI was 4.71 µM.

Question: And the GI50 [10]?
Answer: Its GI50 is 8.01 µM.

Question: What about the TGI [10] of the same molecule?
Answer: Its TGI is over 25.5 µM.

Question: What about the GI50 [11] of the same molecule?
Answer: The GI50 was 4.94 µM.

Question: And the TGI [11]?
Answer: The TGI was 11.7 µM.

Question: What about the GI50 [12] of the same molecule?
Answer: Its GI50 is 1.23 µM.

Question: And the TGI [12]?
Answer: The TGI was 11.3 µM.

Question: What about the GI50 [13] of the same molecule?
Answer: Its GI50 is 4.92 µM.

Question: And the TGI [13]?
Answer: Its TGI is 12.7 µM.

Question: And the GI50 [14]?
Answer: The GI50 was 0.646 µM.

Question: What about the TGI [14] of the same molecule?
Answer: Its TGI is 2.74 µM.

Question: What about the GI50 [15] of the same molecule?
Answer: Its GI50 is 2.99 µM.

Question: And the TGI [15]?
Answer: The TGI was over 25.5 µM.

Question: What about the GI50 [16] of the same molecule?
Answer: The GI50 was 8.78 µM.

Question: And the TGI [16]?
Answer: Its TGI is over 25.5 µM.

Question: And the GI50 [17]?
Answer: The GI50 was 2.8 µM.

Question: What about the TGI [17] of the same molecule?
Answer: Its TGI is 8.22 µM.

Question: What about the GI50 [18] of the same molecule?
Answer: The GI50 was 1.43 µM.

Question: And the TGI [18]?
Answer: Its TGI is 6.78 µM.

Question: What about the GI50 [19] of the same molecule?
Answer: The GI50 was 5.58 µM.

Question: What about the TGI [19] of the same molecule?
Answer: The TGI was over 25.5 µM.

Question: And the GI50 [20]?
Answer: Its GI50 is 0.951 µM.

Question: What about the TGI [20] of the same molecule?
Answer: Its TGI is 4.75 µM.

Question: And the GI50 [21]?
Answer: The GI50 was 8.99 µM.

Question: And the TGI [21]?
Answer: Its TGI is over 25.5 µM.

Question: And the GI50 [22]?
Answer: Its GI50 is 1.72 µM.

Question: What about the TGI [22] of the same molecule?
Answer: Its TGI is 15 µM.

Question: And the GI50 [23]?
Answer: The GI50 was 2.09 µM.

Question: What about the TGI [23] of the same molecule?
Answer: Its TGI is 8.55 µM.

Question: What about the GI50 [24] of the same molecule?
Answer: The GI50 was 4.2 µM.

Question: What about the TGI [24] of the same molecule?
Answer: Its TGI is 16 µM.

Question: And the GI50 [25]?
Answer: Its GI50 is 4.68 µM.

Question: What about the TGI [25] of the same molecule?
Answer: Its TGI is 14.3 µM.

Question: And the GI50 [26]?
Answer: Its GI50 is 4.89 µM.

Question: And the TGI [26]?
Answer: The TGI was over 25.5 µM.

Question: And the GI50 [27]?
Answer: Its GI50 is 1.68 µM.

Question: And the TGI [27]?
Answer: Its TGI is over 25.5 µM.

Question: And the GI50 [28]?
Answer: The GI50 was 1.79 µM.

Question: And the TGI [28]?
Answer: Its TGI is 8.62 µM.

Question: And the GI50 [29]?
Answer: Its GI50 is 7.9 µM.

Question: And the TGI [29]?
Answer: The TGI was over 25.5 µM.

Question: What about the GI50 [30] of the same molecule?
Answer: The GI50 was 3.38 µM.

Question: What about the TGI [30] of the same molecule?
Answer: Its TGI is 7.38 µM.

Question: What about the GI50 [31] of the same molecule?
Answer: The GI50 was 3.02 µM.

Question: And the TGI [31]?
Answer: Its TGI is 6.79 µM.

Question: And the GI50 [32]?
Answer: The GI50 was 2.49 µM.

Question: And the TGI [32]?
Answer: Its TGI is 11.4 µM.

Question: And the GI50 [33]?
Answer: Its GI50 is 4.5 µM.

Question: What about the TGI [33] of the same molecule?
Answer: The TGI was 24.2 µM.

Question: And the GI50 [34]?
Answer: The GI50 was 3 µM.

Question: What about the TGI [34] of the same molecule?
Answer: Its TGI is 14.1 µM.

Question: And the GI50 [35]?
Answer: The GI50 was 8.21 µM.

Question: What about the TGI [35] of the same molecule?
Answer: Its TGI is over 25.5 µM.

Question: What about the GI50 [36] of the same molecule?
Answer: Its GI50 is 3.86 µM.

Question: What about the TGI [36] of the same molecule?
Answer: The TGI was 22.7 µM.

Question: What about the GI50 [37] of the same molecule?
Answer: Its GI50 is 3.61 µM.

Question: And the TGI [37]?
Answer: The TGI was 10.8 µM.

Question: And the GI50 [38]?
Answer: Its GI50 is 2.14 µM.

Question: And the TGI [38]?
Answer: Its TGI is 12.2 µM.

Question: What about the GI50 [39] of the same molecule?
Answer: Its GI50 is 4.73 µM.

Question: And the TGI [39]?
Answer: The TGI was 19.6 µM.

Question: And the GI50 [40]?
Answer: Its GI50 is 4.45 µM.

Question: And the TGI [40]?
Answer: Its TGI is 11.6 µM.

Question: What about the GI50 [41] of the same molecule?
Answer: The GI50 was 4.05 µM.

Question: And the TGI [41]?
Answer: The TGI was 9.17 µM.

Question: And the GI50 [42]?
Answer: The GI50 was 7.12 µM.

Question: What about the TGI [42] of the same molecule?
Answer: Its TGI is over 25.5 µM.

Question: And the GI50 [43]?
Answer: The GI50 was 1.47 µM.

Question: And the TGI [43]?
Answer: The TGI was 12 µM.

Question: And the GI50 [44]?
Answer: The GI50 was 3.42 µM.

Question: What about the TGI [44] of the same molecule?
Answer: The TGI was 11.9 µM.

Question: And the GI50 [45]?
Answer: Its GI50 is 1.16 µM.

Question: And the TGI [45]?
Answer: Its TGI is 6.73 µM.

Question: And the GI50 [46]?
Answer: Its GI50 is 1.41 µM.

Question: What about the TGI [46] of the same molecule?
Answer: Its TGI is 6.48 µM.

Question: What about the GI50 [47] of the same molecule?
Answer: The GI50 was 3.66 µM.

Question: And the TGI [47]?
Answer: Its TGI is 16.3 µM.

Question: And the GI50 [48]?
Answer: The GI50 was 3.62 µM.

Question: What about the TGI [48] of the same molecule?
Answer: The TGI was over 25.5 µM.

Question: And the GI50 [49]?
Answer: The GI50 was 0.618 µM.

Question: And the TGI [49]?
Answer: Its TGI is 3.77 µM.

Question: And the GI50 [50]?
Answer: The GI50 was 3.71 µM.

Question: What about the TGI [50] of the same molecule?
Answer: Its TGI is 13.3 µM.

Question: What about the GI50 [51] of the same molecule?
Answer: The GI50 was 5.55 µM.

Question: What about the TGI [51] of the same molecule?
Answer: Its TGI is over 25.5 µM.

Question: And the GI50 [52]?
Answer: The GI50 was 5.84 µM.

Question: And the TGI [52]?
Answer: The TGI was 19.4 µM.

Question: And the GI50 [53]?
Answer: The GI50 was 1.99 µM.

Question: What about the TGI [53] of the same molecule?
Answer: Its TGI is 19.4 µM.

Question: And the GI50 [54]?
Answer: The GI50 was 4.36 µM.

Question: What about the TGI [54] of the same molecule?
Answer: Its TGI is 17.2 µM.

Question: And the GI50 [55]?
Answer: Its GI50 is 5.99 µM.

Question: And the TGI [55]?
Answer: Its TGI is over 25.5 µM.

Question: And the GI50 [56]?
Answer: Its GI50 is 1.4 µM.

Question: What about the TGI [56] of the same molecule?
Answer: Its TGI is 9.92 µM.

Question: And the GI50 [57]?
Answer: Its GI50 is 5.46 µM.

Question: What about the TGI [57] of the same molecule?
Answer: The TGI was 16.1 µM.

Question: And the GI50 [58]?
Answer: Its GI50 is 3.85 µM.

Question: What about the TGI [58] of the same molecule?
Answer: Its TGI is 11 µM.

Question: And the GI50 [59]?
Answer: The GI50 was 4.99 µM.

Question: And the TGI [59]?
Answer: Its TGI is over 25.5 µM.
